ChEMBL document CHEMBL6134828, “Discovery, synthesis, and biological mechanism evaluation of novel quinoline derivatives as potent NLRP3 inhibitors” (Eur J Med Chem, 2025)
pIC50: −log10 of the molar value.

Target: NACHT, LRR and PYD domains-containing protein 3 (Mus musculus, UniProt Q8R4B8)
Assay: Inhibition of NLRP3 in mouse J774.A1 cells assessed as reduction IL-1beta release by ELISA
Format: cell-based

Sequence of NACHT, LRR and PYD domains-containing protein 3 (Q8R4B8 whole entry, the tested form may be a part): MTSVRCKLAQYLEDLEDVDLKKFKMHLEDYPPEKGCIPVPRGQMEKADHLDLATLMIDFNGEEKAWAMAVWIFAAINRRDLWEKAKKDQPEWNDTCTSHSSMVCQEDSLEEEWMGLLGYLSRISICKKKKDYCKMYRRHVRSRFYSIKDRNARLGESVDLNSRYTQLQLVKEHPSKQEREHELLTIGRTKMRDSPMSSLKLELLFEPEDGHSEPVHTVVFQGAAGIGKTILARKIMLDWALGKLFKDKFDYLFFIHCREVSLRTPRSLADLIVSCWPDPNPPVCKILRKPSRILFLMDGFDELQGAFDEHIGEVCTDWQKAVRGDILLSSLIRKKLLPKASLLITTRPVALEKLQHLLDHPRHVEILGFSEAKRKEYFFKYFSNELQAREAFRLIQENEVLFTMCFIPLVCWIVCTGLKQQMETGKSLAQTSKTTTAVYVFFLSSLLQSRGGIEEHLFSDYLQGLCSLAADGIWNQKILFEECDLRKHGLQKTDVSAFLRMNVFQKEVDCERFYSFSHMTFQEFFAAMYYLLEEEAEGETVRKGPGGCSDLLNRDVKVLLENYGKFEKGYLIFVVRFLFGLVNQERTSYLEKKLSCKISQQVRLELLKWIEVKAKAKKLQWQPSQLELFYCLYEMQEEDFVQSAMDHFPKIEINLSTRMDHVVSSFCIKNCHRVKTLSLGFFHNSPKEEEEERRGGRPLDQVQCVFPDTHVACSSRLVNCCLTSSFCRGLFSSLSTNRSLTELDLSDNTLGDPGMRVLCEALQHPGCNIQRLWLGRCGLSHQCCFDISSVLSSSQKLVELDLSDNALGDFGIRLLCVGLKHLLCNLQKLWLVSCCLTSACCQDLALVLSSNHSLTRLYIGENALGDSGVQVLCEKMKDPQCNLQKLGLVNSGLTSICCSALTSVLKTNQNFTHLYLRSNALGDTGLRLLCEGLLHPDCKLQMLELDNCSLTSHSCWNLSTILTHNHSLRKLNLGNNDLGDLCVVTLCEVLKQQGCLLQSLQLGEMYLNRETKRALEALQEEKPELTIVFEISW

| SMILES | pIC50 |
| --- | --- |
| O=C(N[C@@H]1CCc2ccccc21)c1cc(-c2ccccc2)nc2ccccc12 | 5.10 |
| CC[C@H](NC(=O)c1cc(C)nc2ccccc12)c1ccccc1 | 4.07 |
| CC[C@H](NC(=O)c1cc(Cl)nc2ccccc12)c1ccccc1 | 4.07 |
| O=C(Nc1ccccc1)c1cc(-c2ccccc2)nc2ccccc12 | 5.68 |
| Cc1ccc(O)cc1NC(=O)c1cc(-c2ccccc2)nc2ccccc12 | 5.15 |
| CC[C@H](NC(=O)c1cc(-c2cccc(F)c2)nc2ccccc12)c1ccccc1 | 5.55 |
| CCN(CC)CCCC(C)Nc1ccnc2cc(Cl)ccc12 (centres undefined) [CHLOROQUINE] | 4.06 |
| O=C(Nc1ccccc1OCc1ccccc1)c1cc(-c2ccccc2)nc2ccccc12 | 4.11 |
| O=C(N[C@H]1CCc2ccccc21)c1cc(-c2ccccc2)nc2ccccc12 | 5.35 |
| COC(=O)[C@@H](NC(=O)c1cc(-c2ccccc2)nc2ccccc12)c1ccccc1 | 5.52 |
| O=C(NCCc1ccccc1)c1cc(-c2ccccc2)nc2ccccc12 | 4.15 |

The next molecules have a higher pIC50 than those just listed; values first:

| pIC50 | SMILES |
| --- | --- |
| 5.98 | CC[C@H](NC(=O)c1c(C)c(-c2cccc(F)c2)nc2ccc(OC)cc12)c1ccccc1 |
| 6.09 | CC[C@H](NC(=O)c1c(C)c(-c2cccc(F)c2)nc2ccc(Cl)cc12)c1ccccc1 |
| 5.87 | CC[C@H](NC(=O)c1c(C)c(-c2cccc(F)c2)nc2ccc(F)cc12)c1ccccc1 |
| 5.97 | CC[C@H](NC(=O)c1c(C)c(-c2cccc(F)c2)nc2c(OC)cccc12)c1ccccc1 |
| 6.04 | CC[C@H](NC(=O)c1c(C)c(-c2cccc(F)c2)nc2cc(Br)ccc12)c1ccccc1 |
| 5.89 | CC[C@H](NC(=O)c1cc(-c2ccccc2)nc2ccccc12)c1ccccc1 [AZD-7624] |
| 5.95 | CC[C@H](NC(=O)c1c(C)c(-c2ccc(F)cc2)nc2ccccc12)c1ccccc1 |
| 6.15 | CC[C@H](NC(=O)c1c(C)c(-c2cccc(F)c2)nc2c(Cl)cccc12)c1ccccc1 |
